Where “and” joins values, the source holds several entries; their conditions need not be identical. Equal values may be shown once. Read-outs that look alike come from different tables or passages of the source.
What was measured:
[1] = target: T1, endogenous GABAB receptor in cortical neurons (Mus musculus, UniProt Q9WV18); assay: cell-based; parameters: species or system primary cortical neurons; conditions: read-out: pEC50 cortical neurons (converted)
T1 construct: gene Gabbr1; native receptor, primary cortical neurons
Text: (§1) Sequence of the linker (L) before and after Nluc was indicated. […] The raw data and p-values are available in source data provided as a Source Data file.

[2] = target: T2, endogenous GABAB receptor in hippocampal neurons (Mus musculus, UniProt Q9WV18); assay: cell-based; parameters: species or system primary hippocampal neurons; BRET G protein sensor (Galpha-Nluc / Venus-Ggamma2), agonist-induced change of BRET; conditions: read-out: pEC50 hippocampal neurons (converted)
T2 construct: gene Gabbr1; native receptor, primary hippocampal neurons
Text: as §1

[3] = target: T3, endogenous GABAB receptor in CGNs (Mus musculus, UniProt Q9WV18); assay: cell-based; parameters: species or system primary cerebellar granule neurons (CGNs); BRET G protein sensor (Galpha-Nluc / Venus-Ggamma2), agonist-induced change of BRET
T3 construct: gene Gabbr1; native receptor, primary cerebellar granule neurons
Text: (§2) Dotted line is the correlation of pEC50 determined with HEK293 cells. […] Data are mean ± SEM from at least three biologically independent experiments each performed in triplicate and analysed using one-way ANOVA with a Dunnett’s post-hoc multiple comparison test to determine significance. […] Sequence of the linker (L) before and after Nluc was indicated. […] The raw data and p-values are available in source data provided as a Source Data file.

[4] = target: T3, endogenous GABAB receptor in CGNs; assay: cell-based; parameters: species or system primary cerebellar granule neurons (CGNs); conditions: with 20 uM baclofen
Text: We have further validated these G protein sensors by measuring the potency of different orthosteric GABAB receptor ligands (Fig. 3a) in both CGNs and HEK293 cells. […] Similar results were obtained in the hippocampal neurons and cortical neurons (Supplementary Fig. 4b–d and Supplementary Table 1). […] Dotted line is the correlation of pEC50 determined with HEK293 cells. […] Data are mean ± SEM from at least three biologically independent experiments each performed in triplicate and analysed using one-way ANOVA with a Dunnett’s post-hoc multiple comparison test to determine significance. […] The raw data and p-values are available in source data provided as a Source Data file. Fig. 1 Design and validation of the Gi/o protein sensors in neurons. a Scheme of the BRET-based sensors to detect the activity of the endogenous GPCR in neurons. b Scheme of the Gαi/o^Nluc and ^VenusGγ2 constructs co-transfected in the neurons. Sequence of the linker (L) before and after Nluc was indicated. […] The data are representative of BRET ratios from five independent experiments. e Representative fluorescent images of Venus and DAPI in CGNs transfected with GαoA^Nluc and ^VenusGγ2 or in HEK293 cells transfected with GαoA^Nluc, Gβ1 and ^VenusGγ2 from three independent experiments. […] The data are representative of the mean ± SEM of BRET ratios from three independent experiments. […]

[5] = target: T4, endogenous cannabinoid CB1 receptor in CGNs (Mus musculus, UniProt P47746); assay: cell-based; parameters: species or system mouse primary cerebellar granule neurons (CGNs)
T4 construct: gene Cnr1; native receptor, primary cerebellar granule neurons

cannabinoid CB1 receptor [6] = target: T5, cannabinoid CB1 receptor (Mus musculus, UniProt P47746); assay: cell-based; parameters: species or system HEK293
T5 construct: gene Cnr1; mouse CB1 cDNA expressed in HEK293 cells
Text: The raw data and p-values are available in source data provided as a Source Data file.

[7] = target: T6, GABAB receptor (GB1 subunit) (Rattus norvegicus, UniProt Q9Z0U4); assay: cell-based; parameters: species or system HEK293; BRET G protein sensor (Galpha-Nluc / Venus-Ggamma2), agonist-induced change of BRET
T6 construct: gene Gabbr1; HA-tagged rat GB1 with Flag-tagged rat GB2 expressed in HEK293 cells; with GABAB2 (GB2)
Text: as §2

cannabinoid CB1 receptor [8] = target: T5, cannabinoid CB1 receptor; assay: cell-based; parameters: BRET between Galpha-Nluc and Venus-Ggamma2, agonist-induced Gi1 or GoA response of transfected mouse CB1; conditions: read-out: Emax ± SEM (n) / Bay 59-3074
Experimental: Fig. 6 Difference of Gi1 and GoA responses by cannabinoid receptor CB1 agonists. a Detection of CB1 receptor in cell membranes of CGNs, mock-transfected HEK293 cells and HEK293 cells transfected with mouse CB1 cDNA (80 ng/well in 96-well plate), by western blotting. Values are mean ± SEM normalized as fold of CB1 expression in CGNs from three independent experiments. b Percentage of change in BRET ratio between Gα^Nluc and ^VenusGγ2 induced by [compound left out] in HEK293 cells (CB1 cDNA; 80 ng/well per 96-well plate) or CGNs for the indicated Gαi1, Gαi2, Gαi3, GαoA, GαoB or Gαz sensors (amounts of cDNA as in Fig. 2a). […] Data are analysed using unpaired t-test (two-tailed) to determine significance. ****p < 0.0001, *p < 0.05 and not significant (ns). c, d Change of BRET signal between Gα^Nluc and ^VenusGγ2 induced by the indicated CB1 receptor agonists in HEK293 cells and CGNs measured by Gi1 and GoA sensors. […] Inset, correlation of the agonist potencies (pEC50) between HEK293 cells and CGNs determined by the G protein sensors. Dotted lines are the correlation of pEC50 determined with HEK293 cells. […] Values are mean ± SEM normalized as fold of […] expression in CGNs from four independent experiments. c Expression of the Nluc-tagged Gα transfected in CGNs or in HEK293 cells in (a), measured by the luminescent signal at 480 nm. […]

[9] = target: T4, endogenous cannabinoid CB1 receptor in CGNs; parameters: species or system mouse primary cerebellar granule neurons (CGNs); conditions: agonist

T2 sequence (Q9WV18 whole entry): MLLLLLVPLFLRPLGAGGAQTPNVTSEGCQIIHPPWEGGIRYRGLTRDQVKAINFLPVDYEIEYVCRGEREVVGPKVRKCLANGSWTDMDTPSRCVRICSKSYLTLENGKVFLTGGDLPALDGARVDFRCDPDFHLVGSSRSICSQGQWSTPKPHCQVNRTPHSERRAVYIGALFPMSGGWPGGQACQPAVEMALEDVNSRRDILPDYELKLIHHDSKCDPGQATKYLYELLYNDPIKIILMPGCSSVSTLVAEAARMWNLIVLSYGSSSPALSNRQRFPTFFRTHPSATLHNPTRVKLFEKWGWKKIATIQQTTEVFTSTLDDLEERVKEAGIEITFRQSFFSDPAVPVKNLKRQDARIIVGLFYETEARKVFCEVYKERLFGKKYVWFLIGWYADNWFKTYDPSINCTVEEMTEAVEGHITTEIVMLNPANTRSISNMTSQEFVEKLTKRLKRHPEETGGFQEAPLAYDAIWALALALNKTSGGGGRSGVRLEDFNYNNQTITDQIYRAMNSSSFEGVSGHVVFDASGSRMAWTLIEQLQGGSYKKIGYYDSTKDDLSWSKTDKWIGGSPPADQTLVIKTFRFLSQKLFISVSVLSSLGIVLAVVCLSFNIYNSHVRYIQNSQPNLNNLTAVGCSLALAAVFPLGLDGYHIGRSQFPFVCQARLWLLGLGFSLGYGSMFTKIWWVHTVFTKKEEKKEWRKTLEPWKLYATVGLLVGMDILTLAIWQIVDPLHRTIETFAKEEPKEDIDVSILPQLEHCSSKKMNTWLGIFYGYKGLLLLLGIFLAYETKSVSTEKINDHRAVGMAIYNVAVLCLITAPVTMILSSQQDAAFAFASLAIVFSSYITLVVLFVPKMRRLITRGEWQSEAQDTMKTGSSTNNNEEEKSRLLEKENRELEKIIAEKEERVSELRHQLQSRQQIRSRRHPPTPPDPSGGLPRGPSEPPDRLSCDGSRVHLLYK
T2 sequence (Q80T41 whole entry partner): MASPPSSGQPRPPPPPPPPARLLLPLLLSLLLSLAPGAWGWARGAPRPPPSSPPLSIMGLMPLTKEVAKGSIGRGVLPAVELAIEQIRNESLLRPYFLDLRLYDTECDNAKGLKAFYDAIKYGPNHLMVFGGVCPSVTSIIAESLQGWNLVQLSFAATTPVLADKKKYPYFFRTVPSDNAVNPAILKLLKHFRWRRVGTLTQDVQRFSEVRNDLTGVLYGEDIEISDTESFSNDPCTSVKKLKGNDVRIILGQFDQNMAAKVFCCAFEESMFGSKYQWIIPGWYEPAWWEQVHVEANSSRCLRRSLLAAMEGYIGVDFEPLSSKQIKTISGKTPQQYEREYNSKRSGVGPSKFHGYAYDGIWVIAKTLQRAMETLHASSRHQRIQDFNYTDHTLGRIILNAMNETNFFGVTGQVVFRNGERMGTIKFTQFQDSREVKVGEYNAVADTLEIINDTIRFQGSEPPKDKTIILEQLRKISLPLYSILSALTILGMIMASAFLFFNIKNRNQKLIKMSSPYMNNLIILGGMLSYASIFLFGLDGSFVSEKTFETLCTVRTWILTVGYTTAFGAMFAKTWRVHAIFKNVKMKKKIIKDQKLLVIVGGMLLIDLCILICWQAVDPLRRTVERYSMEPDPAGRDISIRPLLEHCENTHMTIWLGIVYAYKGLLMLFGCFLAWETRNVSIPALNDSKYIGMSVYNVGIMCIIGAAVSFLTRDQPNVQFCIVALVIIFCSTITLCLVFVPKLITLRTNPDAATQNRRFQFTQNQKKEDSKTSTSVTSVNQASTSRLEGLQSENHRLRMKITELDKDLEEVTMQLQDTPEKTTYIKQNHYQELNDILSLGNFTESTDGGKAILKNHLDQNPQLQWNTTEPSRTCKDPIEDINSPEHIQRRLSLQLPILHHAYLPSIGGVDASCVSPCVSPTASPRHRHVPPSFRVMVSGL
T3 sequence (Q9WV18 whole entry): as the sequence (Q9WV18 whole entry) above
T3 sequence (Q80T41 whole entry partner): as the sequence (Q80T41 whole entry partner) above
T1 sequence (Q9WV18 whole entry): as the sequence (Q9WV18 whole entry) above
T1 sequence (Q80T41 whole entry partner): as the sequence (Q80T41 whole entry partner) above
T4 sequence (P47746 whole entry): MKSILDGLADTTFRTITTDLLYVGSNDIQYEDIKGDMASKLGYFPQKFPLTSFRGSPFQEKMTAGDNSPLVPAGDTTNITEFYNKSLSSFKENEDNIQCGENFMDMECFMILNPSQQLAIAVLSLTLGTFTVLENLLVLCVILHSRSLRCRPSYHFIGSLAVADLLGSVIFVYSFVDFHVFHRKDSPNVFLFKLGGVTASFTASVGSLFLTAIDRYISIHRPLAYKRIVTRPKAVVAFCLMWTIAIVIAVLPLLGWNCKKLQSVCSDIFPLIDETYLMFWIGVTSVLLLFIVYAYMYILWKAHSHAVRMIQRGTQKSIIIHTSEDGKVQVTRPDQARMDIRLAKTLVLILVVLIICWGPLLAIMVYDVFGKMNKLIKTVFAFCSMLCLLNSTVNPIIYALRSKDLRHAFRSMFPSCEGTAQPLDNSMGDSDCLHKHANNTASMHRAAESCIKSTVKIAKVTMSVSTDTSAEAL
T5 sequence (P47746 whole entry): as above
T6 sequence (Q9Z0U4 20-960): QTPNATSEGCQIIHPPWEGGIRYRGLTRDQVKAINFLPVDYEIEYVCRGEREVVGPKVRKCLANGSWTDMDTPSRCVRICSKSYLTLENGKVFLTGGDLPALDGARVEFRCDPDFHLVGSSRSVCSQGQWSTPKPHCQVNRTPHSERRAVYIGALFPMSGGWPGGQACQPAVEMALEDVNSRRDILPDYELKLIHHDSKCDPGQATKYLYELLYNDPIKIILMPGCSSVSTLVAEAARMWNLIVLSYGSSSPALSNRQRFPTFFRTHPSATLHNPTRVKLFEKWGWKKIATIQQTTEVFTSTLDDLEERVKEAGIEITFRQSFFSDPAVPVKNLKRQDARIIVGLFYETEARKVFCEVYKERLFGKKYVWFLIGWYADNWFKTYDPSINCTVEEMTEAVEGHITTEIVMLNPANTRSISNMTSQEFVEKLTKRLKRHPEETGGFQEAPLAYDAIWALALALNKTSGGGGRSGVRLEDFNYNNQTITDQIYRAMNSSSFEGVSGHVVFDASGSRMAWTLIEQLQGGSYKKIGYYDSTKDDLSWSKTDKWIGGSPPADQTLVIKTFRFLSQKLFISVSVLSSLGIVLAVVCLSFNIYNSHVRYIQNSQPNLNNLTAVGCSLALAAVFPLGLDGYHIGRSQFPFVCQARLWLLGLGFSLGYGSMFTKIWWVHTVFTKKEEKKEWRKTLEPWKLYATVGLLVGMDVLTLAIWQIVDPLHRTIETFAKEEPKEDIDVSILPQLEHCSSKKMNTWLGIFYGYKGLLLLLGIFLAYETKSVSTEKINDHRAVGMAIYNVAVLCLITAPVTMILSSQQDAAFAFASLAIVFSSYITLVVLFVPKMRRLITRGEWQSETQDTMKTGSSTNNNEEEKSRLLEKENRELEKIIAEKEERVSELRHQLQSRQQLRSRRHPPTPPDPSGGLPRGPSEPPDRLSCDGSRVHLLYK
T6 sequence (O88871 41-940 partner): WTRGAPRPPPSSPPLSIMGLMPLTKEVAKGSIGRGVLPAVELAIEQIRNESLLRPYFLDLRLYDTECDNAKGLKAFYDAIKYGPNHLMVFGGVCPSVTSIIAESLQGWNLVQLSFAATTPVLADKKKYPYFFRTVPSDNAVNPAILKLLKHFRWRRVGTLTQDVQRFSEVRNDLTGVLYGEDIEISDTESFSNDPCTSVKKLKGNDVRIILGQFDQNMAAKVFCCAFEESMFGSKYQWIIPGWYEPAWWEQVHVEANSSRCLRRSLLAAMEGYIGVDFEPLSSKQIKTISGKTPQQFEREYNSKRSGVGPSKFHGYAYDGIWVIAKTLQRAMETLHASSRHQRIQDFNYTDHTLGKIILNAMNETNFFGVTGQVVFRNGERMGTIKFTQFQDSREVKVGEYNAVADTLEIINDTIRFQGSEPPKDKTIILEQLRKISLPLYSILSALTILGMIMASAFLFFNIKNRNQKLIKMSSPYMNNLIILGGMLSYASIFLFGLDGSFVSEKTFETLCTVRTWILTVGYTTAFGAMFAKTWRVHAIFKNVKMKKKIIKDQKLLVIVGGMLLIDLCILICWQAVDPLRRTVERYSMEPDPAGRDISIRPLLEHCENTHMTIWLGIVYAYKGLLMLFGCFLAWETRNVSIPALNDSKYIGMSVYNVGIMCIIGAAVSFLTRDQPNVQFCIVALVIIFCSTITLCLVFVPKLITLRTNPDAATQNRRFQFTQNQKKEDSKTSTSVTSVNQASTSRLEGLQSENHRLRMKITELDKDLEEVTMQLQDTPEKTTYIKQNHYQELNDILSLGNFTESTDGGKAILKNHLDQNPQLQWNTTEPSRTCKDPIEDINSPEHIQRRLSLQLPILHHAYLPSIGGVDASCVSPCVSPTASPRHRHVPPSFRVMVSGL

| SMILES | EC50 ([1]; Gi1 sensor) [nM] | EC50 ([1]; GoA sensor) [nM] | EC50 ([2]; Gi1 sensor) [nM] | EC50 ([2]; GoA sensor) [nM] | EC50 ([3]; Gi1 sensor) [nM] | EC50 ([3]; GoA sensor) [nM] | also measured |
| --- | --- | --- | --- | --- | --- | --- | --- |
| NCC(CC(=O)O)c1ccc(Cl)cc1 (stereo not drawn) [baclofen] | 1120 | 1780 | 1020 | 2630 | 4790 | 2690 | – |
| C[C@@H](NC[C@H](O)CP(=O)(O)CCCCCNC(=O)CCc1ccc(O)c(I)c1)c1cccc(C(=O)O)c1 [CGP64213] | – | – | – | – | – | – | IC50 ([4]; Gi1 sensor): 28.2 nM; IC50 ([4]; GoA sensor): 25.7 nM |
| CCCCCCC(C)(C)c1ccc([C@@H]2C[C@H](O)CC[C@H]2CCCO)c(O)c1 [CP 55940] | – | – | – | – | – | – | EC50 ([5]; pEC50 ± SEM (n) / CP 55940, B=Gi1, G protein BRET sensor (Gi1 or GoA), CGNs): 6.61 nM; EC50 ([5]; pEC50 ± SEM (n) / CP 55940, B=GoA, G protein BRET sensor (Gi1 or GoA), CGNs): 55 nM; EC50 (cannabinoid CB1 receptor [6]; pEC50 ± SEM (n) / CP 55940, B=Gi1, G protein BRET sensor (Gi1 or GoA), transfected HEK293): 126 nM; EC50 (cannabinoid CB1 receptor [6]; pEC50 ± SEM (n) / CP 55940, B=GoA, G protein BRET sensor (Gi1 or GoA), transfected HEK293): 166 nM |
| CP(=O)(O)CCCN [SKF 97541] | 302 | 603 | 229 | 692 | 2340 | 2040 | – |
| NCCC[PH](=O)O [APPA] | – | – | – | – | 741 | 692 | EC50 ([7]; pEC50 HEK293, Gi1 sensor): 21.4 nM; EC50 ([7]; pEC50 HEK293, GoA sensor): 17 nM |
| N#Cc1c(Oc2cccc(OS(=O)(=O)CCCC(F)(F)F)c2)cccc1C(F)(F)F [Bay 59-3074] | – | – | – | – | – | – | EC50 ([5]; pEC50 ± SEM (n) / Bay 59-3074): 339 nM and 631 nM; Emax (cannabinoid CB1 receptor [8]; HEK293, B=Gi1, % of maximum response of reference agonist): 50.3%; Emax (cannabinoid CB1 receptor [8]; HEK293, B=GoA, % of maximum response of reference agonist): 56.3%; EC50 (cannabinoid CB1 receptor [6]; pEC50 ± SEM (n) / Bay 59-3074): 708 nM and 1170 nM; Emax ± SEM (n) / Bay 59-3074 [9]: 70.7 ± 1.1 (4) and 42.1 ± 3.9 (3) |
